Laboratory results as given in US20080293696A1, “2-Aminoarylcarboxamides Useful as Cancer Chemotherapeutic Agents” (Bayer Pharmaceuticals Corporation, priority 2004, published 2008).
Counter-ions that a name gives are not always drawn.

The molecules below were run on PAKT/PKB (p-(S473) AKT) in H209 small cell lung carcinoma cells stimulated with Stem Cell Factor (assay: PAKT/PKB Cytoblot Assay with H209 cells (SCF-stimulated p-(S473) AKT)). Settings: Homo sapiens, NCI-H209, compound 1 hour, SCF 25 ng/mL 5 minutes, group: between 1 and 3 μM.
Assay type: cell-based
Experimental: PAKT/PKB Cytoblot Assay Protocol with H209 Cells
H209 small cell lung carcinoma cells in log phase were plated at 50,000 cells/well in 96-well poly-lysine coated, clear bottom/black-sided plates (BD Cat # 354640) in 100 μl RPMI medium containing 0.1% (w/v) BSA, and incubated overnight at 37° C. in 5% CO2 incubator. The following day, compounds (10 mM stock solutions in DMSO) were added to the plates to generate final concentrations of 0.0, 0.01, 0.03, 0.1, 0.3, 1.0, 3.0 and 10 μM for IC50 determinations and incubated for 1 hour at 37° C. Cells were then left untreated or stimulated with Stem Cell Factor (SCF: Biosource Cat # PHC2116) at a final concentration of 25 ng/mL for 5 minutes at 37° C. in 5% CO2 incubator. The media was then removed using a vacuum manifold and the cells were washed once with Tris Buffered Saline (TBS).
Cells were then fixed by adding 200 μl of cold 3.7% (v/v) formaldehyde in TBS to each well for 15 minutes at 4° C. After removal of the formaldehyde, the cells were treated with the addition of 50 μl of methanol (at −20° C.) to each well for 5 minutes. After removal of the methanol, […] of 1% (w/v) BSA in TBS was added to each well to block non-specific antibody binding sites and the plate was incubated at room temperature for 30 minutes.
After removal of the blocking buffer, 50 μl of p-(S473) AKT rabbit polyclonal antibody (Cell Signaling Cat # 9277S) was added at a dilution of 1:250 in 0.1% (w/v) BSA in TBS, and the plate was incubated at room temperature for 1 hour. Plates were then washed 3 times with cold TBS containing 0.05% (v/v) Tween 20 (TBS-T) and […] of Horseradish peroxidase (HRP)-conjugated goat-anti-rabbit antibody (Amersham Cat # NA934V) at a dilution of 1:250 in TBS-T was added and the plate was incubated at room temperature for 1 h. After washing with ice-cold TBS-T four times, 100 μl of Enhanced Chemiluminescence (ECL) reagent (Amersham Cat# RPN2209) was added to each well and mixed on a mini-orbital shaker for 1 min. The plate was then read on a Perkin Elmer Victor 5 Multilabel Counter (#1420-0421).
With `O=C(NCCc1cccs1)c1cc(CNc2ccccc2C(=O)Nc2ccc3c(c2)OC(F)(F)O3)ccn1` [Example 128, 4-{[(2-{[(2,2-difluoro-1,3-benzodioxol-5-yl)amino]carbonyl}phenyl)amino]methyl}-N-[2-(2-thienyl)ethyl]pyridine-2-carboxamide] the IC50 was 1000 to 3000 nM.
`COc1cccc(C(=O)Nc2ccc3c(c2)OC(F)(F)C(F)(F)O3)c1NCc1ccncc1` [Example 7, 3-methoxy-2-[(pyridin-4-ylmethyl)amino]-N-(2,2,3,3-tetrafluoro-2,3-dihydro-1,4-benzodioxin-6-yl)benzamide] was tested, and the IC50 was 1000 to 3000 nM.
For `CN(C)C(=O)c1cc(CNc2ccc(F)cc2C(=O)Nc2ccc3c(c2)OC(F)(F)O3)ccn1` [Example 42, 4-{[(2-{[(2,2-difluoro-1,3-benzodioxol-5-yl)amino]carbonyl}-4-fluorophenyl)amino]methyl}-N,N-dimethylpyridine-2-carboxamide], the IC50 was 1000 to 3000 nM.

Same assay, conditions: Homo sapiens, NCI-H209, compound 1 hour, SCF 25 ng/mL 5 minutes, group: less than 500 nM
`CNC(=O)c1cc(CNc2ccc(F)cc2C(=O)Nc2ccc3c(c2)OC(F)(F)C(F)(F)O3)ccn1` [Example 34, 4-{[(4-fluoro-2-{[(2,2,3,3-tetrafluoro-2,3-dihydro-1,4-benzodioxin-6-yl)amino]carbonyl}phenyl)amino]methyl}-N-methylpyridine-2-carboxamide] gave an IC50 of less than 500 nM.
For `CN(C)CCCNc1cc(CNc2ccccc2C(=O)Nc2ccc3c(c2)OC(F)(F)O3)ccn1` [Example 143, N-(2,2-difluoro-1,3-benzodioxol-5-yl)-2-{[(2-{[3-(dimethylamino)propyl]amino}pyridin-4-yl)methyl]amino}benzamidebis(trifluoroacetate)], the IC50 was less than 500 nM.
Work on `O=C(Nc1ccc2c(c1)OC(F)(F)O2)c1ccccc1NCc1ccnc(NCCO)c1` [Example 134, N-(2,2-difluoro-1,3-benzodioxol-5-yl)-2-[({2-[(2-hydroxyethyl)amino]pyridin-4-yl}methyl)amino]benzamide trifluoroacetate (salt)] yielded an IC50 of less than 500 nM.
Molecule `CCN(CC)CCNC(=O)c1cc(CNc2ccccc2C(=O)Nc2ccc3c(c2)OC(F)(F)O3)ccn1` [Example 88, N-[2-(diethylamino)ethyl]-4-{[(2{[(2,2-difluoro-1,3-benzodioxol-5-yl)amino]carbonyl}phenyl)amino]methyl}pyridine-2-carboxamide] has an IC50 of less than 500 nM.
`COC(C)C(=O)Nc1cc(CNc2ccccc2C(=O)Nc2ccc3c(c2)OC(F)(F)O3)ccn1` (stereo not shown) [Example 151, N-(2,2-difluoro-1,3-benzodioxol-5-yl)-2-[({2-[(2-methoxypropanoyl)amino]pyridin-4yl}methyl)amino]benzamide] was tested, and the IC50 was less than 500 nM.
Molecule `O=C(Nc1ccc2c(c1)OC(F)(F)O2)c1ccccc1NCc1ccnc(NCCCO)c1` [Example 137, N-(2,2-difluoro-1,3-benzodioxol-5-yl)-2-[({2-[(3-hydroxypropyl)amino]pyridin-4-yl}methyl)amino]benzamide trifluoroacetate(salt)] has an IC50 of less than 500 nM.
With `O=C(NCCCn1ccnc1)c1cc(CNc2ccccc2C(=O)Nc2ccc3c(c2)OC(F)(F)O3)ccn1` [Example 96, 4-{[(2-{[(2,2-difluoro-1,3-benzodioxol-5-yl)amino]carbonyl}phenyl)amino]methyl}-N-[3-(1H-imidazol-1-yl)propyl]pyridine-2-carboxamide] the IC50 was less than 500 nM.
For `O=C(NCCCN1CCCCCC1)c1cc(CNc2ccccc2C(=O)Nc2ccc3c(c2)OC(F)(F)O3)ccn1` [Example 113, N-(3-azepan-1-ylpropyl)-4-{[(2-{[(2,2-difluoro-1,3-benzodioxol-5-yl)amino]carbonyl}phenyl)amino]methyl}pyridine-2-carboxamide], the IC50 was less than 500 nM.
With `COc1cccc(NCc2ccncc2)c1C(=O)Nc1ccc2c(c1)OC(F)(F)O2` [Example 11, N-(2,2-difluoro-1,3-benzodioxol-5-yl)-2-methoxy-6-[(pyridin-4-ylmethyl)amino]benzamide] the IC50 was less than 500 nM.
For `O=C(Nc1ccc2c(c1)OC(F)(F)C(F)(F)O2)c1ccc(F)cc1NCc1ccncc1` [Example 18, 4-fluoro-2-[(pyridin-4-ylmethyl)amino]-N-(2,2,3,3-tetrafluoro-2,3-dihydro-1,4-benzodioxin-6-yl)benzamide], the IC50 was less than 500 nM.
